Assays:
stomach = assay: Gastric mucosal protecting activity (ulcer caused by 0.4N-HCl+50% ethanol); type: in vivo, rat (male Donryu); settings: 30 minutes before necrotizing substance
Procedure: Male Donryu rats (150 to 250 g) which had been caused to fast for 24 hours were used. The test compound was administered in a dose of 10 mg/kg. p.o., and 30 minutes later, a necrotizing substance (0.4N-HCl+50% ethanol) was administered orally in a dose of 5 ml/kg. One hour after the administration of the necrotizing substance, the stomach was dissected out and fixed with formalin. The area of ulcer which occurred was measured, and by comparison with a control group, the percent inhibition of the test compound was determined.

histamine H2 receptor = biological target: T1, histamine H2 receptor (Cavia porcellus, UniProt P47747); assay: Histamine H2 antagonizing activity (isolated guinea pig right atrium, histamine dose-response); set-up: species or system guinea pig (Hartley-strain); settings: 32° C., test compound 1×10^-6, 1×10^-7 M, 10 min before histamine, Van Rossum method, read-out: pA2 (converted)
T1 construct: The right atrium was isolated in the Krebs-Henselite solution; from tissue; host or cells: isolated right atrium of male Hartley-strain guinea pigs
T1 sequence (P47747 whole entry): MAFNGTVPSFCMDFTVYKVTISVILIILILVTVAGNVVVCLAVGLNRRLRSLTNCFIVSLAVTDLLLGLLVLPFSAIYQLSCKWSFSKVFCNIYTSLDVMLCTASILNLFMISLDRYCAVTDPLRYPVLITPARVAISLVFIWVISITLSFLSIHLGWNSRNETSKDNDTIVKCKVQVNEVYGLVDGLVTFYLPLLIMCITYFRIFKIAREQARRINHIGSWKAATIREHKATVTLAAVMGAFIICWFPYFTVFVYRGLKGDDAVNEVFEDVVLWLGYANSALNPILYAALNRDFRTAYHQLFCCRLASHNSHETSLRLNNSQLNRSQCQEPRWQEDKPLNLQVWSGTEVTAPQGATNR
Procedure: Hartley-strain guinea pigs (male, weight 300 to 350 g) were killed by a blow on the head, and the heart was extracted. The right atrium was isolated in the Krebs-Henselite solution through which a mixed gas (O2 95%, CO2 5%) was circulated. The right atrium was suspended in an organ bath (30 ml) filled with the Krebs-Henselite solution kept at 32° C. The mixed gas was circulated through the organ bath, and a diastolic tension of 1 g was maintained. Contraction of the right atrium was recorded by a force-displacement transducer, and the heart rate was counted by a heart rate meter interlocked with the transducer.
Histamine (used in the form of dihydrochloride) was added cumulatively to the organ bath in a concentration of 1×10^-8 M to 3×10^-5 M. Thus, the dose-response curve of histamine was obtained. The inside of the organ bath was washed several times, and the test compound (1×10^-6, 1×10^-7 M) was added to the organ bath. Ten minutes later, the dose-response curve of histamine in the presence of the test compound was obtained.
The pA2 value of the test compound was determined from the first histamine dose-response curve and the histamine dose-response curve in the presence of the test compound by the method of J. M. Van Rossum (Arch. Int. Pharmacodyn. Ther., 143-299, 1963).

| Kb (histamine H2 receptor) | SMILES | Percent inhibition (area of ulcer, vs control group) (stomach; 10 mg/kg p.o.) | Percent inhibition (area of ulcer, vs control group) (stomach; 30 mg/kg p.o.) |
| --- | --- | --- | --- |
|  | CN/C(=N/CCSCc1nc[nH]c1C)NC#N [cimetidine, reference compound] | No inhibition was observed | 11% |
|  | O=C(CSCc1ccco1)NCCCOc1cccc(CN2CCCCC2)c1 [Example 12, N-(3-[3-(piperidinomethyl)phenoxy]propyl)-2-(furfurylthio)acetamide] | 63% |  |
| 79.4 nM | O=C(C[S+]([O-])Cc1ccco1)NCCCOc1cccc(CN2CCCCC2)c1 (centres unmarked) [Example 13, N-{3-[3-(piperidinomethyl)phenoxy]propyl}-2-(furfurylsulfinyl)acetamide] | 72% |  |

From patent US4988828A, “Phenoxypropyl derivatives” (Fujirebio Kabushiki Kaisha, priority 1987, dated 1991)
